Columns and labels:
Settings in all cases: 72 h
Calu-3 [1] = experiment: drug sensitivity score (DSS) for viability; higher = more toxic; extreme values may be limits of the assay
HepG2 [2] = experiment: as above
Caco-2 [3] = experiment: as above
Vero E6 [4] = experiment: as above
U2OS [5] = experiment: as above
Calu-3 [6] = experiment: relative viability EC50 (midpoint between 100% and the lowest measured viability); higher = less toxic
HepG2 [7] = experiment: as above
Caco-2 [8] = experiment: as above
U2OS [9] = experiment: as above
Calu-3 [10] = experiment: cell viability relative to DMSO; higher = less toxic
HepG2 [11] = experiment: as above
Caco-2 [12] = experiment: as above
Vero E6 [13] = experiment: as above
U2OS [14] = experiment: as above
Vero E6 [15] = experiment: relative viability EC50 (midpoint between 100% and the lowest measured viability); higher = less toxic

Structure (SMILES)	drug sensitivity score (Calu-3 [1])	drug sensitivity score (HepG2 [2])	drug sensitivity score (Caco-2 [3])	drug sensitivity score (Vero E6 [4])	drug sensitivity score (U2OS [5])	relative viability EC50 (Calu-3 [6])	relative viability EC50 (HepG2 [7])	relative viability EC50 (Caco-2 [8])	relative viability EC50 (U2OS [9])	cell viability (Calu-3 [10]; 1 nM)	cell viability (Calu-3 [10]; 10 nM)	cell viability (Calu-3 [10]; 100 nM)	cell viability (Calu-3 [10]; 1000 nM)	cell viability (Calu-3 [10]; 10000 nM)	cell viability (HepG2 [11]; 1 nM)	cell viability (HepG2 [11]; 10 nM)	cell viability (HepG2 [11]; 100 nM)	cell viability (HepG2 [11]; 1000 nM)	cell viability (HepG2 [11]; 10000 nM)	cell viability (Caco-2 [12]; 1 nM)	cell viability (Caco-2 [12]; 10 nM)	cell viability (Caco-2 [12]; 100 nM)	cell viability (Caco-2 [12]; 1000 nM)	cell viability (Caco-2 [12]; 10000 nM)	cell viability (Vero E6 [13]; 1 nM)	cell viability (Vero E6 [13]; 10 nM)	cell viability (Vero E6 [13]; 100 nM)	cell viability (Vero E6 [13]; 1000 nM)	cell viability (Vero E6 [13]; 10000 nM)	cell viability (U2OS [14]; 1 nM)	cell viability (U2OS [14]; 10 nM)	cell viability (U2OS [14]; 100 nM)	cell viability (U2OS [14]; 1000 nM)	cell viability (U2OS [14]; 10000 nM)	relative viability EC50 (Vero E6 [15])
O=C(OCC(COC(=O)c1cccnc1)(COC(=O)c1cccnc1)COC(=O)c1cccnc1)c1cccnc1 [niceritrol]	0	0	0	1.5	0	> 10 µM	> 10 µM	> 10 µM	> 10 µM	98.5%	108%	101%	106%	115%	93.7%	94.1%	92.7%	98.2%	101%	93.9%	88.4%	92.7%	93.3%	86.9%	92.6%	103%	96.8%	96.9%	73.8%	102%	104%	101%	101%	98.8%	–
NC(=O)NC1NC(=O)NC1=O (configuration not stated) [allantoin]	–	0	0	0	0	–	> 10 µM	> 10 µM	> 10 µM	–	–	–	–	–	114%	107%	104%	99.9%	95.5%	102%	109%	96.3%	100%	93.5%	108%	98.5%	103%	102%	102%	99%	102%	99.5%	103%	97.8%	> 10 µM
O=C(O)CN1C(=O)c2cccc3cccc(c23)C1=O [alrestatin]	–	0	0	0	0	–	> 10 µM	> 10 µM	> 10 µM	–	–	–	–	–	95.4%	102%	90.7%	98%	101%	99%	95.2%	101%	96.7%	107%	94.8%	102%	105%	96.6%	101%	98.9%	96.6%	96.1%	102%	105%	> 10 µM
Cc1ccc(C)c([C@H](O)CNC(C)C)c1 [benzenemethanol,-2,5-dimethyl-[[(1-methylethyl)amino]methyl]]	–	0	0	0	0	–	> 10 µM	> 10 µM	> 10 µM	–	–	–	–	–	111%	92.6%	101%	100%	104%	102%	96.3%	92.6%	93.7%	96.3%	103%	107%	98.4%	103%	101%	101%	99.4%	102%	99.2%	102%	> 10 µM
c1cc(Cc2cnc[nH]2)ccn1 [immethridine]	0	0	0	–	0	> 10 µM	> 10 µM	> 10 µM	> 10 µM	107%	96.8%	94.6%	94.8%	103%	93.8%	104%	99.1%	93.4%	97%	99.7%	103%	95%	97.1%	90.3%	–	–	–	–	–	94.1%	99.9%	97.4%	102%	98.4%	–
O=C(O)c1cn(-c2ccc(F)cc2)c2cc(N3CCNCC3)c(F)cc2c1=O [sarafloxacin]	0	0	0	–	0	> 10 µM	> 10 µM	> 10 µM	> 10 µM	93.1%	95.7%	102%	99.7%	101%	113%	98.8%	101%	94.4%	99.6%	98.3%	87.3%	95.6%	98%	97.4%	–	–	–	–	–	101%	108%	99.2%	100%	97.4%	–
CN1CCC(NC(=O)c2cc(-c3c(O)cc(O)cc3Oc3ccc([N+](=O)[O-])cc3)on2)CC1 [NMS-E973]	7	23.6	8.3	1.4	13.6	0.669 µM	0.108 µM	0.874 µM	0.65 µM	93.7%	101%	90.4%	68.4%	44%	108%	101%	55%	0.9%	0.9%	99.1%	97.8%	101%	61.3%	33.7%	109%	100%	106%	108%	62.2%	94.2%	103%	99.5%	28.2%	3.7%	–
CC[N+](CC)(CC)CCOc1cccc(OCC[N+](CC)(CC)CC)c1OCC[N+](CC)(CC)CC [gallamine-triethiodide]	0	0	0	–	0	> 10 µM	> 10 µM	> 10 µM	> 10 µM	104%	108%	104%	90.8%	95%	94.7%	102%	94%	93.1%	95.6%	104%	96.2%	91.5%	98.2%	101%	–	–	–	–	–	103%	101%	102%	99.8%	100%	–
CC(=O)O[C@]1(C(C)=O)CC[C@H]2[C@@H]3C=C(Cl)C4=CC(=O)CC[C@]4(C)[C@H]3CC[C@@]21C [chlormadinone-acetate]	–	0	0	0	0	–	> 10 µM	> 10 µM	> 10 µM	–	–	–	–	–	98.1%	98.8%	100%	92%	112%	101%	106%	115%	98.8%	103%	93.2%	96.9%	91.9%	92.5%	90%	97.2%	92.7%	96.1%	90.6%	95%	> 10 µM
CCCCCCN(CCCCCC)C(=O)Cc1c(-c2ccc(Cl)cc2)[nH]c2ccc(Cl)cc12 [FGIN-1-43]	0	0	0.5	–	0	> 10 µM	> 10 µM	> 10 µM	> 10 µM	91.5%	106%	99.4%	101%	103%	104%	94.9%	106%	98.2%	97%	101%	102%	101%	93.5%	86.8%	–	–	–	–	–	98.4%	103%	103%	104%	95.2%	–
Oc1cc(O)c2cc(O)c(-c3cc(O)c(O)c(O)c3)[o+]c2c1 [delphinidin]	–	0	0.5	0	0	–	> 10 µM	> 10 µM	> 10 µM	–	–	–	–	–	104%	102%	103%	114%	96.5%	101%	95.5%	90.8%	94.6%	83.4%	100%	98.8%	98.3%	92.7%	97.9%	103%	104%	98.1%	102%	99.2%	> 10 µM
CCCCC(=O)NCCc1c(Cc2ccccc2)[nH]c2ccccc12 [DH-97]	–	0	0	0	0	–	> 10 µM	> 10 µM	> 10 µM	–	–	–	–	–	90.8%	100%	100%	105%	103%	102%	101%	96.8%	92.3%	96%	102%	98.7%	99.8%	97%	93.8%	100%	94.7%	99.9%	95.1%	96.7%	> 10 µM
Cc1ccc([N+](=O)[O-])cc1O [2-methyl-5-nitrophenol]	–	0	0	0	0	–	> 10 µM	> 10 µM	> 10 µM	–	–	–	–	–	106%	91%	99.4%	100%	102%	96.9%	105%	101%	94.3%	95.3%	99.9%	94.4%	94.3%	98.6%	96.2%	108%	96%	101%	96.1%	102%	> 10 µM
O=c1[nH]c(=O)c2ccccc2o1 [carsalam]	0	0	0	–	0	> 10 µM	> 10 µM	> 10 µM	> 10 µM	89.6%	93.5%	104%	106%	108%	96%	100%	103%	98.1%	101%	99.5%	95.4%	92.5%	104%	98.8%	–	–	–	–	–	98.9%	102%	97.3%	102%	103%	–
CNC(=O)c1c(I)c(C(=O)NCC(=O)Nc2c(I)c(C(=O)O)c(I)c(C(=O)NCCO)c2I)c(I)c(N(C)C(C)=O)c1I [ioxaglic-acid]	0	0	0	–	0	> 10 µM	> 10 µM	> 10 µM	> 10 µM	109%	101%	97.2%	102%	95.5%	95.9%	98.4%	94%	98.2%	96.9%	104%	92.4%	106%	100%	103%	–	–	–	–	–	106%	96.9%	102%	101%	104%	–
CCCCCCCCCCCCCCCCCCO [octadecan-1-ol]	–	–	–	0	–	–	–	–	–	–	–	–	–	–	–	–	–	–	–	–	–	–	–	–	99.2%	103%	102%	94.2%	107%	–	–	–	–	–	> 10 µM
Cc1c(N)cccc1Cn1ccc(OCCc2cccs2)cc1=O	0	0	0	–	0	> 10 µM	> 10 µM	> 10 µM	> 10 µM	95.9%	100%	106%	102%	93.4%	93.3%	104%	94.1%	99.8%	93.2%	91.2%	91.6%	91.1%	98.5%	84.3%	–	–	–	–	–	99.5%	101%	95.4%	97.1%	95%	–
